Laboratory results: patent publication US20060045953A1 (priority 2004, published 2006)

What follows are molecules tested against T1, hT1R2/hT1R3 sweet receptor (Homo sapiens, UniProt Q7RTX0+Q8TE23) (assay: In vitro hT1R2/hT1R3 sweet taste receptor activation assay (FLIPR, dose response)). Conditions: Table E, Sweet Enhancer Amides; read-out: Sweet EC50.
T1 construct: expressed in transfected cells; host or cells: HEK293 derivative stably expressing Gα15, clone S-9
T1 sequence (Q8TE23 20-839): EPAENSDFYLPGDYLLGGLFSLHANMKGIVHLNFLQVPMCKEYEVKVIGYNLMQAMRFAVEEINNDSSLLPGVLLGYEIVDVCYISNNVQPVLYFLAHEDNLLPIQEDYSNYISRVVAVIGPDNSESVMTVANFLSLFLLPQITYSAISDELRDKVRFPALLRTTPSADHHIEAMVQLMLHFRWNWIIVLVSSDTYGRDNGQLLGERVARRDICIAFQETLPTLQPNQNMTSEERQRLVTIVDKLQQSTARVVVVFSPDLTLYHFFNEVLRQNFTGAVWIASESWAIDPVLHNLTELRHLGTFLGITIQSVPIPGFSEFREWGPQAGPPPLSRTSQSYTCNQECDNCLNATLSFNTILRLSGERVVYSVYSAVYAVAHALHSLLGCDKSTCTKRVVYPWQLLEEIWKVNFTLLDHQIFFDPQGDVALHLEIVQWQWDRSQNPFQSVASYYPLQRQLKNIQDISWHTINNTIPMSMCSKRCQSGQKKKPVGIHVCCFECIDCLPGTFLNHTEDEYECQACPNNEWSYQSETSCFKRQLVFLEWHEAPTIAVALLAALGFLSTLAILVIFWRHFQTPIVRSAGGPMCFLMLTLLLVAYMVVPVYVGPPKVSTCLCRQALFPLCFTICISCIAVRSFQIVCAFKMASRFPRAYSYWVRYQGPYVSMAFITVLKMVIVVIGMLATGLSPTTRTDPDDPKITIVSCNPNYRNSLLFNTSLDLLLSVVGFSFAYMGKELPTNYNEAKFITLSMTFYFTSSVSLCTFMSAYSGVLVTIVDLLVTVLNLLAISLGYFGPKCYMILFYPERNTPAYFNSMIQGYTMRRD
T1 sequence (Q7RTX0 21-852): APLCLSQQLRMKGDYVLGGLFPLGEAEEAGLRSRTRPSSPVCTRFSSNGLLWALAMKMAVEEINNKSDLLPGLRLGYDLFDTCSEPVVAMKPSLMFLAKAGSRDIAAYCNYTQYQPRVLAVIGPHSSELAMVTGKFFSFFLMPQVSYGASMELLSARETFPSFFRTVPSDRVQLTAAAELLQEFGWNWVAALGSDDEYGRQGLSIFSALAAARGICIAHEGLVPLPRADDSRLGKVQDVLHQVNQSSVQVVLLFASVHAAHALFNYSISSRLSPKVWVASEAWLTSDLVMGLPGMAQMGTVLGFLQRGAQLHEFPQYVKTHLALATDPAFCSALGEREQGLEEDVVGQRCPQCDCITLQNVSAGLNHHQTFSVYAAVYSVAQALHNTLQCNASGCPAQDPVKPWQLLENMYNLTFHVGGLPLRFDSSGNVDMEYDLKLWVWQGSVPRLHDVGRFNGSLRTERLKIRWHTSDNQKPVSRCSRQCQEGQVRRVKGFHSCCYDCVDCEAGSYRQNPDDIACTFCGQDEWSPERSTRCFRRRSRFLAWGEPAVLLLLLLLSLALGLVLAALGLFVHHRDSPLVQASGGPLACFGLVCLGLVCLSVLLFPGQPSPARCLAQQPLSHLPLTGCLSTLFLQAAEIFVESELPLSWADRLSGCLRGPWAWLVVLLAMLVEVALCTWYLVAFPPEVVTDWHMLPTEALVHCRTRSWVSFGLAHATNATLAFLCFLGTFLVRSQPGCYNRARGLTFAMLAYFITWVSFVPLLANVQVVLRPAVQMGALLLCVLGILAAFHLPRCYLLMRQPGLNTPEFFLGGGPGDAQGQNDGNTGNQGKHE
Assay type: cell-based
Procedure: Activity was determined using an automated fluorometric imaging assay on a FLIPR instrument (Fluorometric Intensity Plate Reader, Molecular Devices, Sunnyvale, Calif.) (designated FLIPR assay). […] S-9 cells were grown for 24 hours at 37° C. S-9 cells were then loaded with the calcium dye Fluo-3AM (Molecular Probes, Eugene, Oreg.), 4 µM in a phosphate buffered saline (D-PBS) (Invitrogen, Carlsbad, Calif.), for 1 hour at room temperature. After replacement with 25 µl D-PBS, stimulation was performed in the FLIPR instrument and at room temperature by the addition of 25 µl D-PBS supplemented with different stimuli at concentrations corresponding to twice the desired final level.
For dose-responses analysis, stimuli were presented in duplicates at 10 different concentrations ranging from 60 nM to 30 µM. Activities were normalized to the response obtained with 400 mM D-fructose, a concentration that elicits maximum receptor response. EC50s were determined using a non-linear regression algorithm (using a Senomyx, Inc. software), where the Hill slope, bottom asymptotes and top asymptotes were allow to vary.

| SMILES | EC50 [nM] |
| --- | --- |
| Cc1nocc1C(=O)NC1c2ccccc2CCC1C (stereo not drawn) [Example E6, 3-methyl-N-(2-methyl-1,2,3,4-tetrahydronaphthalen-1-yl)isoxazole-4-carboxamide] | 1480 |
| O=C(NC1CCCc2ccccc21)c1cccc(Cl)c1O (stereo not drawn) [Example E7, 3-chloro-2-hydroxy-N-(1,2,3,4-tetrahydronaphthalen-1-yl)benzamide] | 1810 |
| CC1CCc2ccccc2C1NC(=O)c1cccc(O)c1O (stereo not drawn) [Example E8, 2,3-dihydroxy-N-(2-methyl-1,2,3,4-tetrahydronaphthalen-1-yl)benzamide] | 1980 |
| CC1CCc2ccccc2C1NC(=O)c1ccccc1O (stereo not drawn) [Example E9, 2-hydroxy-N-(2-methyl-1,2,3,4-tetrahydronaphthalen-1-yl)benzamide] | 2360 |
| COc1cccc2c1CCCC2NC(=O)c1cccc(O)c1O (stereo not drawn) [Example E10, 2,3-dihydroxy-N-(5-methaxy-1,2,3,4-tetrahydronaphthalen-1-yl)benzamide] | 2440 |
| Cc1nocc1C(=O)NC1CCC(C)c2ccccc21 (stereo not drawn) [Example E11, 3-methyl-N-(4-methyl-1,2,3,4-tetrahydronaphthalen-1-yl)isoxazole-4-carboxamide] | 2460 |
| COc1cccc2c1CCCC2NC(=O)c1conc1C (stereo not drawn) [Example E12, N-(5-methoxy-1,2,3,4-tetrahydronaphthalen-1-yl)-3-methylisoxazole-4-carboxamide] | 2850 |
| Cc1c(Cl)cccc1C(=O)N[C@H]1CCCc2ccccc21 [Example E13, (S)-3-chloro-2-methyl-N-(1,2,3,4-tetrahydronaphthalen-1-yl)benzamide] | 2910 |
| Cc1cccc(C)c1C(=O)N[C@H]1CCCc2ccccc21 [Example E14, (S)-2,6-dimethyl-N-(1,2,3,4-tetrahydronaphthalen-1-yl)benzamide] | 2910 |
| O=C(NC1CCCc2ccccc21)c1c(Cl)cccc1Cl (stereo not drawn) [Example E15, 2,6-dichloro-N-(1,2,3,4-tetrahydronaphthalen-1-yl)benzamide] | 3020 |
| COc1c(Cl)ccc(Cl)c1C(=O)NC1CCCc2ccccc21 (stereo not drawn) [Example E16, 3,6-dichloro-2-methoxy-N-(1,2,3,4-tetrahydronaphthalen-1-yl)benzamide] | 3040 |
| O=C(N[C@@H]1CCCc2ccccc21)c1cccc(O)c1O [Example E17, (R)-2,3-dihydroxy-N-(1,2,3,4-tetrahydronaphthalen-1-yl)benzamide] | 3130 |
| Cc1c(F)cccc1C(=O)N[C@H]1CCCc2ccccc21 [Example E19, (S)-3-fluoro-2-methyl-N-(1,2,3,4-tetrahydronaphthalen-1-yl)benzamide] | 3570 |
| COc1ccc(Cl)c(OC)c1C(=O)N[C@H]1CCCc2ccccc21 [Example E20, (S)-3-chloro-2,6-dimethoxy-N-(1,2,3,4-tetrahydronaphthalen-1-yl)benzamide] | 4130 |
| O=C(N[C@@H]1CCCc2ccccc21)c1cncc(Br)c1 [Example E21, (R)-5-bromo-N-(1,2,3,4-tetrahydronaphthalen-1-yl)nicotinamide] | 4190 |
| O=C(N[C@@H]1CCCc2ccccc21)c1cccc(Cl)c1 [Example E22, (R)-3-chloro-N-(1,2,3,4-tetrahydronaphthalen-1-yl)benzamide] | 4520 |
| O=C(N[C@@H]1CCCc2ccccc21)c1cccc(F)c1 [Example E23, (R)-3-fluoro-N-(1,2,3,4-tetrahydronaphthalen-1-yl)benzamide] | 4860 |
| O=C(N[C@@H]1CCCc2ccccc21)c1cc(O)ccc1O [Example E24, (R)-2,5-dihydroxy-N-(1,2,3,4-tetrahydronaphthalen-1-yl)benzamide] | 6040 |

| SMILES | EC50 [nM] |
| --- | --- |
| Cc1nocc1C(=O)N[C@@H]1CCCc2ccccc21 [Example E25, (R)-3-methyl-N-(1,2,3,4-tetrahydronaphthalen-1-yl)isoxazole-4-carboxamide] | 7790 |
| Cc1c(F)c(F)c(C(=O)NC(C)C(C)C)c(F)c1F (stereo not drawn) [Example E27, 2,3,5,6-tetrafluoro-4-methyl-N-(3-methylbutan-2-yl)benzamide] | 140 |
| Cc1c(F)c(F)c(C(=O)NC(C)C(C)(C)C)c(F)c1F (stereo not drawn) [Example E28, N-(3,3-dimethylbutan-2-yl)-2,3,5,6-tetrafluoro-4-methylbenzamide] | 210 |
| CC1CCCCC1NC(=O)c1cccc(OC(F)(F)F)c1 (stereo not drawn) [Example E29, N-(2-methylcyclohexyl)-3-(trifluoromethoxy)benzamide] | 420 |
| CC1CCCCC1NC(=O)c1cc(F)cc(Cl)c1 (stereo not drawn) [Example E30, 3-chloro-5-fluoro-N-(2-methylcyclohexyl)benzamide] | 450 |
| Cc1c(F)c(F)c(C(=O)N[C@H](C)C(C)(C)C)c(F)c1F [Example E31, (R)-N-(3,3-dimethylbutan-2-yl)-2,3,5,6-tetrafluoro-4-methylbenzamide] | 490 |
| CC1CCCCC1NC(=O)c1ccc(F)c(C(F)(F)F)c1 (stereo not drawn) [Example E32, 4-fluoro-N-(2-methylcyclohexyl)-3-(trifluoromethyl)benzamide] | 510 |
| CC1CCCCC1NC(=O)c1cc(Cl)ccc1Cl (stereo not drawn) [Example E33, 2,5-dichloro-N-(2-methylcyclohexyl)benzamide] | 630 |
| CCCCC(C)NC(=O)c1c(F)c(F)c(C)c(F)c1F (stereo not drawn) [Example E34, 2,3,5,6-tetrafluoro-N-(hexan-2-yl)-4-methylbenzamide] | 710 |
| COc1c(Cl)cc(Cl)c(OC)c1C(=O)NC1CCCCC1C (stereo not drawn) [Example E35, 3,5-dichloro-2,6-dimethoxy-N-(2-methylcyclohexyl)benzamide] | 710 |
| Cc1cc(C)c(C(=O)NC2CCCCC2C)c(C)c1 (stereo not drawn) [Example E36, 2,4,6-trunethyl-N-(2-methylcyclohexyl)benzamide] | 720 |
| COc1c(Cl)ccc(Cl)c1C(=O)NC1CCCCC1C (stereo not drawn) [Example E37, 3,6-dichloro-2-methoxy-N-(2-methylcyclohexyl)benzamide] | 770 |
| Cc1c(F)c(F)c(C(=O)N[C@@H](C)C(C)(C)C)c(F)c1F [Example E38, (S)-N-(3,3-dimethylbutan-2-yl)-2,3,5,6-tetrafluoro-4-methylbenzamide] | 900 |
| CC1CCCCC1NC(=O)c1c(Cl)cccc1Cl (stereo not drawn) [Example E39, 2,6-dichloro-N-(2-methylcyclohexyl)benzamide] | 910 |
| COc1cc(C(=O)NC2CCCCC2C)cc(Cl)n1 (stereo not drawn) [Example E40, 2-chloro-6-methoxy-N-(2-methylcyclohexyl)isonicotinamide] | 950 |
| Cc1c(F)c(F)c(C(=O)N[C@@H]2CC3CCC2C3)c(F)c1F (stereo partly drawn) [Example E41, N-((2R)-bicyclo[2.2.1]heptan-2-yl)-2,3,5,6-tetrafluoro-4-methylbenzamide] | 1020 |
| CCC(COC)NC(=O)c1ccc(C)cc1C (stereo not drawn) [Example E42, N-(1-methoxybutan-2-yl)-2,4-dimethylbenzamide] | 1060 |
| Cc1c(F)c(F)c(C(=O)NC2CCCC(C)C2C)c(F)c1F (stereo not drawn) [Example E43, N-(2,3-dimethylcyclohexyl)-2,3,5,6-tetrafluoro-4-methylbenzamide] | 1080 |
